This is an account of results in patent US20230087342A1, “AZEPANE DERIVATIVE” (Nippon Chemiphar Co., Ltd., priority 2019, published 2023).

The target of this experiment is T1, human κ opioid receptors (Homo sapiens, UniProt P41145).
T1 construct: host or cells: CHO cells
Nature of the experiment: Opioid receptor function test (Lance Ultra cAMP kit, agonist activity). It is filed as cell-based. The following applies: CHO cells expressing human κ opioid receptors, 10 μM forskolin, 30 minutes. The procedure:
Opioid Receptor Function Test
The function activity of the compound of the present invention on κ opioid receptors was examined.
Method: Using a Lance Ultra cAMP kit (Perkin Elmer), the examination was performed according to a predetermined method. In evaluation of agonist activity, CHO cells expressing human κ opioid receptors (Catalog No. CT6606, accession No. NM_000912) and a test compound were reacted in an assay buffer (1×HSS, 5 mM HEPES, pH 7.4, 0.5 mM IBMX (isobutylmethyixanthine), 0.1% SA) in the presence of 10 μM forskolin for 30 minutes. Subsequently, a cAMP detection reagent in the kit was added. One hour later, time-resolved fluorescence measurement was performed using an EnVision plate reader (Perkin Elmer). The evaluation of the test compound was performed in a concentration range of 10^−14 to 10^−7 M for the κ opioid receptor function test.

T1 sequence (P41145 whole entry): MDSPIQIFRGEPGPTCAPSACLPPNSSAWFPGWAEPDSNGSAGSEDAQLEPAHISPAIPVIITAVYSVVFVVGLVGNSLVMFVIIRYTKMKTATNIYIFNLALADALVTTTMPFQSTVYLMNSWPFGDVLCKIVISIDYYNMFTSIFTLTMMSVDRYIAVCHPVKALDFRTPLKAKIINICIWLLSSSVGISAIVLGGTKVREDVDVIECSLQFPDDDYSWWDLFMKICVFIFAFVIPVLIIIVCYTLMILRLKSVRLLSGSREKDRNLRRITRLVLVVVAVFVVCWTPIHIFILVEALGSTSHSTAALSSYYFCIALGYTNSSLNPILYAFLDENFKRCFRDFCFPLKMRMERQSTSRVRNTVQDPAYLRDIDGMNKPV

By EC50 is commonly meant the concentration at which the effect is half-maximal. A higher EC50 goes with a need for much substance. `Cc1cc(CC(=O)N2CC[C@]34CCN(CC5CC5)[C@H](Cc5ccc(O)cc53)[C@]4(O)CC2)no1` [Example 185, 1-((5aS,6R,11bR)-14-(cyclopropylmethyl)-5a,10-dihydroxy-1,2,5,5a,6,7-hexahydro-6,11b-(epiminoethano)naphtho[1,2-d]azepin-3(4H)-yl)-2-(5-methylisoxazol-3-yl)ethan-1-one] showed an EC50 of 0.39 nM. Then `O=C(CCc1ccccn1)N1CC[C@]23CCN(CC4CC4)[C@H](Cc4ccc(O)cc42)[C@]3(O)CC1` [Example 190, 1-((5aS,6R,11bR)-14-(cyclopropylmethyl)-5a,10-dihydroxy-1,2,5,5a,6,7-hexahydro-6,11b-(epiminoethano)naphtho[1,2-d]azepin-3(4H)-yl)-3-(pyridin-2-yl)propan-1-one], with 0.32 nM; and `CC(C)(C)c1cnn(CCN2CC[C@]34CCN(CC5CC5)[C@H](Cc5ccc(O)cc53)[C@]4(O)CC2)c1` [Example 149, (5aS,6R,11bS)-3-(2-(4-(tert-butyl)-1H-pyrazol-1-yl)ethyl)-14-(cyclopropylmethyl)-2,3,4,5,6,7-hexahydro-6,11b-(epiminoethano)naphtho[1,2-d]azepine-5a,10(1H)-diol], with 0.023 nM; and `Oc1ccc2c(c1)[C@@]13CCN(CCn4ncc5ccccc54)CC[C@@]1(O)[C@@H](C2)N(CC1CC1)CC3` [Example 122, (5aS,6R,11bS)-3-(2-(1H-indazol-1-yl)ethyl)-14-(cyclopropylmethyl)-2,3,4,5,6,7-hexahydro-6,11b-(epiminoethano)naphtho[1,2-d]azepine-5a,10(1H)-diol], with 0.15 nM. Take `Oc1ccc2c(c1)[C@@]13CCN(CCc4ncccn4)CC[C@@]1(O)[C@@H](C2)N(CC1CC1)CC3` [Example 83, (5aS,6R,11bS)-14-(cyclopropylmethyl)-3-(2-(pyrimidin-2-yl)ethyl)-2,3,4,5,6,7-hexahydro-6,11b-(epiminoethano)naphtho[1,2-d]azepine-5a,10(1H)-diol]: the response was half-maximal at 0.37 nM (EC50).

`O=C(Cn1cc(C2CC2)cn1)N1CC[C@]23CCN(CC4CC4)[C@H](Cc4ccc(O)cc42)[C@]3(O)CC1` [Example 160, 2-(4-cyclopropyl-1H-pyrazol-1-yl)-1-((5aS,6R,11bR)-14-(cyclopropylmethyl)-5a,10-dihydroxy-1,2,5,5a,6,7-hexahydro-6,11b-(epiminoethano)naphtho[1,2-d]azepin-3(4H)-yl)ethan-1-one] registered an EC50 of 0.045 nM. Take `Oc1ccc2c(c1)[C@@]13CCN(CCc4cccc(C(F)(F)F)n4)CC[C@@]1(O)[C@@H](C2)N(CC1CC1)CC3` [Example 88, (5aS,6R,11bS)-14-(cyclopropylmethyl)-3-(2-(6-(trifluoromethyl)pyridin-2-yl)ethyl)-2,3,4,5,6,7-hexahydro-6,11b-(epiminoethano)naphtho[1,2-d]azepine-5a,10(1H)-diol]: the EC50 came out at 0.75 nM. `Cc1ccn(CCN2CC[C@]34CCN(CC5CC5)[C@H](Cc5ccc(O)cc53)[C@]4(O)CC2)n1` [Example 47, (5aS,6R,11bS)-14-(cyclopropylmethyl)-3-(2-(3-methyl-1H-pyrazol-1-yl)ethyl)-2,3,4,5,6,7-hexahydro-6,11b-(epiminoethano)naphtho[1,2-d]azepine-5a,10(1H)-diol] came in with an EC50 of 0.23 nM. Take `Cc1cnn(CCCN2CC[C@]34CCN(CC5CC5)[C@H](Cc5ccc(O)cc53)[C@]4(O)CC2)c1` [Example 230, (5aS,6R,11bS)-14-(cyclopropylmethyl)-3-(3-(4-methyl-1H-pyrazol-1-yl)propyl)-2,3,4,5,6,7-hexahydro-6,11b-(epiminoethano)naphtho[1,2-d]azepine-5a,10(1H)-diol]: a half-maximal response (EC50) required 0.066 nM. Molecule `Oc1ccc2c(c1)[C@@]13CCN(CCn4cc5ccccc5n4)CC[C@@]1(O)[C@@H](C2)N(CC1CC1)CC3` [Example 120, (5aS,6R,11bS)-3-(2-(2H-indazol-2-yl)ethyl)-14-(cyclopropylmethyl)-2,3,4,5,6,7-hexahydro-6,11b-(epiminoethano)naphtho[1,2-d]azepine-5a,10(1H)-diol] had an EC50 of 0.053 nM. For the molecule `Cc1cn(CC(=O)N2CC[C@]34CCN(CC5CC5)[C@H](Cc5ccc(O)cc53)[C@]4(O)CC2)nc1C(F)(F)F` [Example 163, 1-((5aS,6R,11bR)-14-(cyclopropylmethyl)-5a,10-dihydroxy-1,2,5,5a,6,7-hexahydro-6,11b-(epiminoethano)naphtho[1,2-d]azepin-3(4H)-yl)-2-(4-methyl-3-(trifluoromethyl)-1H-pyrazol-1-yl)ethan-1-one], the midpoint of the response, the EC50, lay at 0.076 nM. On to `CC(C)c1cnn(CCN2CC[C@]34CCN(CC5CC5)[C@H](Cc5ccc(O)cc53)[C@]4(O)CC2)c1` [Example 195, (5aS,6R,11bS)-14-(cyclopropylmethyl)-3-(2-(4-isopropyl-1H-pyrazol-1-yl)ethyl)-2,3,4,5,6,7-hexahydro-6,11b-(epiminoethano)naphtho[1,2-d]azepine-5a,10(1H)-diol], for which the midpoint of the response, the EC50, lay at 0.023 nM. On to `CN(C)CCC(=O)N1CC[C@]23CCN(CC4CC4)[C@H](Cc4ccc(O)cc42)[C@]3(O)CC1` [Example 186, 1-((5aS,6R,11bR)-14-(cyclopropylmethyl)-5a,10-dihydroxy-1,2,5,5a,6,7-hexahydro-6,11b-(epiminoethano)naphtho[1,2-d]azepin-3(4H)-yl)-3-(dimethylamino)propan-1-one], for which the response was half-maximal at 0.99 nM (EC50). The value for `Oc1ccc2c(c1)[C@@]13CCN(CCn4ccc(C(F)(F)F)n4)CC[C@@]1(O)[C@@H](C2)N(CC1CC1)CC3` [Example 54, (5aS,6R,11bS)-14-(cyclopropylmethyl)-3-(2-(3-(trifluoromethyl)-1H-pyrazol-1-yl)ethyl)-2,3,4,5,6,7-hexahydro-6,11b-(epiminoethano)naphtho[1,2-d]azepine-5a,10(1H)-diol] was 0.36 nM; that for `Cc1cnn(C2CC(N3CC[C@]45CCN(CC6CC6)[C@H](Cc6ccc(O)cc64)[C@]5(O)CC3)C2)c1` (single isomer, unassigned) [Example 227 (I)] was 0.015 nM; that for `O=C(Cn1cc(Br)cn1)N1CC[C@]23CCN(CC4CC4)[C@H](Cc4ccc(O)cc42)[C@]3(O)CC1` [Example 60, 2-(4-bromo-1H-pyrazol-1-yl)-1-((5aS,6R,11bR)-14-(cyclopropylmethyl)-5a,10-dihydroxy-1,2,5,5a,6,7-hexahydro-6,11b-(epiminoethano)naphtho[1,2-d]azepin-3(4H)-yl)ethan-1-one] was 0.056 nM.

On to `Cc1cc2c(cc1O)[C@@]13CCN(C(=O)Cc4n[nH]c5ccccc45)CC[C@@]1(O)[C@@H](C2)N(CC1CC1)CC3` [Example 357, 1-((5aS,6R,11bR)-14-(cyclopropylmethyl)-5a,10-dihydroxy-9-methyl-1,2,5,5a,6,7-hexahydro-6,11b-(epiminoethano)naphtho[1,2-d]azepin-3(4H)-yl)-2-(1H-indazol-3-yl)ethan-1-one], for which the EC50 is 0.062 nM. Turning to `O=C(Cn1cc(C(F)(F)F)cn1)N1CC[C@]23CCN(CC4CC4)[C@H](Cc4ccc(O)cc42)[C@]3(O)CC1` [Example 143, 1-((5aS,6R,11bR)-14-(cyclopropylmethyl)-5a,10-dihydroxy-1,2,5,5a,6,7-hexahydro-6,11b-(epiminoethano)naphtho[1,2-d]azepin-3(4H)-yl)-2-(4-(trifluoromethyl)-1H-pyrazol-1-yl)ethan-1-one], the EC50 is 0.033 nM. As for `O=C(Cc1cc2ccccn2n1)N1CC[C@]23CCN(CC4CC4)[C@H](Cc4ccc(O)cc42)[C@]3(O)CC1` [Example 117, 1-((5aS,6R,11bR)-14-(cyclopropylmethyl)-5a,10-dihydroxy-1,2,5,5a,6,7-hexahydro-6,11b-(epiminoethano)naphtho[1,2-d]azepin-3(4H)-yl)-2-(pyrazolo[1,5-a]pyridin-2-yl)ethan-1-one], a half-maximal effect (EC50) was put at 0.4 nM. As to `Oc1ccc2c(c1)[C@@]13CCN(CCn4nccn4)CC[C@@]1(O)[C@@H](C2)N(CC1CC1)CC3` [Example 66, (5aS,6R,11bS)-3-(2-(2H-1,2,3-triazol-2-yl)ethyl)-14-(cyclopropylmethyl)-2,3,4,5,6,7-hexahydro-6,11b-(epiminoethano)naphtho[1,2-d]azepine-5a,10(1H)-diol], the EC50 stood at 0.14 nM. Molecule `O=C(Cc1cscn1)N1CC[C@]23CCN(CC4CC4)[C@H](Cc4ccc(O)cc42)[C@]3(O)CC1` [Example 33, 1-((5aS,6R,11bR)-14-(cyclopropylmethyl)-5a,10-dihydroxy-1,2,5,5a,6,7-hexahydro-6,11b-(epiminoethano)naphtho[1,2-d]azepin-3(4H)-yl)-2-(thiazol-4-yl)ethan-1-one] showed an EC50 of 0.92 nM. `Cn1nc(CC(=O)N2CC[C@]34CCN(CC5CC5)[C@H](Cc5ccc(O)cc53)[C@]4(O)CC2)cc1C(F)(F)F` [Example 36, 1-((5aS,6R,11bR)-14-(cyclopropylmethyl)-5a,10-dihydroxy-1,2,5,5a,6,7-hexahydro-6,11b-(epiminoethano)naphtho[1,2-d]azepin-3(4H)-yl)-2-(1-methyl-5-(trifluoromethyl)-1H-pyrazol-3-yl)ethan-1-one] came in with an EC50 of 0.025 nM. `Oc1ccc2c(c1)[C@@]13CCN(CCN4CCc5ccccc54)CC[C@@]1(O)[C@@H](C2)N(CC1CC1)CC3` [Example 126, (5aS,6R,11bS)-14-(cyclopropylmethyl)-3-(2-(indolin-1-yl)ethyl)-2,3,4,5,6,7-hexahydro-6,11b-(epiminoethano)naphtho[1,2-d]azepine-5a,10(1H)-diol]: the half-maximal effective concentration (EC50) came to 0.74 nM. Take `CN(C)CC(=O)N1CC[C@]23CCN(CC4CC4)[C@H](Cc4ccc(O)cc42)[C@]3(O)CC1` [Example 198, 1-((5aS,6R,11bR)-14-(cyclopropylmethyl)-5a,10-dihydroxy-1,2,5,5a,6,7-hexahydro-6,11b-(epiminoethano)naphtho[1,2-d]azepin-3(4H)-yl)-2-(dimethylamino)ethan-1-one]: the EC50 turned out to be 0.59 nM.
